Measured values taken from ChEMBL document CHEMBL2074396, “Functional characterization of the rat multispecific organic anion transporter OAT1 mediating basolateral uptake of anionic drugs in the kidney” (FEBS Lett, 1998).

How the values were obtained:
[1] = biological target: T1, Solute carrier family 22 member 6 (Rattus norvegicus, UniProt O35956); test: TP_TRANSPORTER: uptake in Xenopus laevis oocytes; type: functional, cell-based; conditions: oocyte
T1 sequence (O35956 whole entry): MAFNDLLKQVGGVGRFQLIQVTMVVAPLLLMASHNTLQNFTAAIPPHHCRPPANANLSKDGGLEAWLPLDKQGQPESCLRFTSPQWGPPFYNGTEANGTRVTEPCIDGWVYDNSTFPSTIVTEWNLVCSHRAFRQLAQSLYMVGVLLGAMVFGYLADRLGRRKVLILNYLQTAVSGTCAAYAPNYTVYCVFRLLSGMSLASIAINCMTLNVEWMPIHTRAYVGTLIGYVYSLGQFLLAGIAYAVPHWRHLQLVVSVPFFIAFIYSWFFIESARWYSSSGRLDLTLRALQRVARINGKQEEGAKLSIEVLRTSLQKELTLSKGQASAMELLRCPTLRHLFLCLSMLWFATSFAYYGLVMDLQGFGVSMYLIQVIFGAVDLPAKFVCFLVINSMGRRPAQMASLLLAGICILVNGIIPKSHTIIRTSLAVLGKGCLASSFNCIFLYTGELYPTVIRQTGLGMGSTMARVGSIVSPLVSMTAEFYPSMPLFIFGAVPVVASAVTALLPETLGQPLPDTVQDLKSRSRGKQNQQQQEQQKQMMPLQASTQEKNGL

[2] = biological target: T1, Solute carrier family 22 member 6; test: TP_TRANSPORTER: inhibition of PAH uptake in Xenopus laevis oocytes; type: functional, cell-based; conditions: oocyte

Row | SMILES | Activity [1] | Activity [2]
1 | Nc1nc2ncc(CNc3ccc(C(=O)N[C@@H](CCC(=O)O)C(=O)O)cc3)nc2c(=O)[nH]1 [FOLIC ACID] | substrate [+] | inhibitor [+]
2 | Cc1c(F)c(N2CCNC(C)C2)cc2c1c(=O)c(C(=O)O)cn2C1CC1 (centres undefined) [GREPAFLOXACIN] | is not a substrate [-] | 
3 | C[C@H]1COc2c(N3CCN(C)CC3)c(F)cc3c(=O)c(C(=O)O)cn1c23.C[C@H]1COc2c(N3CCN(C)CC3)c(F)cc3c(=O)c(C(=O)O)cn1c23.O [LEVOFLOXACIN] | is not a substrate [-] | 
